Test [1] deals with NMDAR-EPSCs (GluN1/GluN2B receptors). The experiment in a line: Evoked NMDAR-EPSCs, whole-cell patch-clamp of layer V pyramidal neurons in sham- or endoNF-treated mPFC slices. The following applies: for inhibition of NMDAR-EPSC amplitude: sham-treated mPFC slices, DP12 1 μg/ml, then subsequently applied 0.3 μM Ro 25-6981. The format is cell-based, mouse. An excerpt: Each mouse was quickly sacrificed by cervical dislocation. After decapitation, the brain was rapidly removed from the skull and placed in ice-cold artificial cerebrospinal fluid (aCSF) equilibrated with 95% O2/5% CO2, which was composed of the following (in mM): 250 sucrose, 24 NaHCO3, 25 glucose, 2.5 KCl, 1.25 NaH2PO4, 2 CaCl2, and 1.5 MgCl2 (osmolarity 345-350 mOsm/kg, pH 7.4). Using a VT1200S vibratome (Leica, Nussloch, Germany), coronal slices containing the prelimbic and infralimbic cortices (1.9-1.3 mm anterior to bregma) were cut 350 μm or 400 μm thick, for patch clamp and extracellular recordings, respectively, in the same sucrose-containing aCSF. Then, the slices were transferred to a slice holding chamber filled with recording aCSF (osmolarity 300-305 mOsm/kg, pH 7.4) that contained 120 mM NaCl instead of sucrose (Eckhardt et al., 2000) and was continuously gassed with 95% O2/5% CO2.
(§1) For endoNF treatment in C57BL/6J mice, slices were first allowed to recover for 20 min at room temperature (22-24° C.) in recording aCSF and were then placed in a 24-well plate to be incubated in 2 ml of aCSF without (sham) or with addition of endoNF (10 μg/ml) at 35° C. for 2 hours. The 24-well plate was installed in a water bath (ED, Julabo, Seelbach, Germany). For field excitatory postsynaptic potential (fEPSP) recordings in knockout and transgenic mice, mPFC slices were incubated in recording aCSF for >2 hours at room temperature before recordings. For patch-clamp recordings in knockout mice, slices were incubated first at 35° C. for 20 min and then at room temperature for >30 min before recordings started. The aCSF was continuously gassed with 95% O2/5% CO2 during all incubation steps and recordings.
For whole-cell patch-clamp recordings, layer V pyramidal neurons were visualized using a SliceScope Pro 6000 equipped with a 40× water-immersion objective and infrared differential interference contrast microscopy (Scientifica, Uckfield, UK). Pyramidal cells were identified by their triangular soma and long apical dendrites, and synaptically evoked excitatory postsynaptic currents (EPSCs) were recorded using patch pipettes (3-5 MQ) fabricated using borosilicate glass capillaries (wall thickness 0.315, length 100, outer diameter 1.5 mm, Hilgenberg) and a DMZ-Zeitz puller (Zeitz Instruments GmbH, Martinsried, Germany). The intracellular pipette solution contained the following (in mM): 140.7 Cs-methane-sulfonate, 5 NaCl, 1 MgCl2, 0.2 EGTA, 10 HEPES, 3 ATP-Mg, 0.3 Na-GTP, and 3.1 QX-314 (osmolarity 295 mOsm/kg, adjusted to pH 7.2 with CsOH). EPSCs were evoked by electrical pulses (0.2 ms) at 0.033 Hz via a glass pipette placed in layer II/III of the mPFC (identically to fEPSPs). Mixed EPSCs showing a fast AMPAR-mediated component and a slow NMDAR-mediated component were recorded at a −60 mV holding potential in whole-cell voltage-clamp mode in normal aCSF. The stimulation intensity was adjusted to evoke mixed EPSCs with amplitudes of approximately 300 pA. The slow NMDAR-mediated component of EPSCs was pharmacologically isolated at −60 mV in modified aCSF containing low Mg^2+ (0.1 mM) and high Ca^2+ (3.2 mM, for adjustment of divalent cation concentrations), the selective antagonist of α-amino-3-hydroxy-5-methyl-4-isoxazolepropionic acid (AMPA)/kainate receptors NBQX (10 μM), and the selective antagonist of γ-aminobutyric acid (GABA)B receptors CGP-55845 (2 μM) (Chen et al., 2003). The washout of Mg^2+ required at least 25 min. Recordings at a holding potential near the resting membrane potential allowed us to obtain stable NMDAR-EPSC recordings from pyramidal cells lasting for 1-1.5 hours. Series resistance (Rs, range 10-25 MΩ) was compensated (20-30%) and monitored continuously. Neurons in which Rs changed by more than 20% throughout the experiment were not included in the analysis. In voltage-clamp mode, membrane potential was not corrected for liquid junction potential. […]
For orientation: Patch clamp records ionic current or voltage across a cell membrane.

In test [2] the test system is layer II/III - layer V synapses in mPFC slices. In words: TBS-induced LTP (fEPSP) in sham- and endoNF-treated mPFC slices from C57BL/6 mice. The class given is cell-based, mouse. The following applies: for LTP level 50-60 min after TBS: endoNF-treated slices, Ro 25-6981 0.3 μM, DP12 1 μg/ml, DP5 1 or 10 μg/ml, sarcosine 0.75 mM, SSR 504734 3 μM. As for the experimental part:
as §1
Prefrontal slices (400 μm) were transferred to a submerged-type recording MC membrane chamber (volume 2 ml; Scientific Systems Design Inc., Mississauga, Ontario, Canada) perfused with oxygenated recording ACSF at a flow rate of 4 ml/min and maintained at room temperature (22-25° C.), unless stated otherwise in the “Results”-section given below. Field EPSPs were evoked and recorded using thin-walled glass electrodes (borosilicate glass, wall thickness 0.188, length 100, and outer diameter 1.5 mm, Hilgenberg, Malsfeld, Germany) filled with recording aCSF in 400 μm-thick mPFC slices. In order to stimulate electrically the input fibers of pyramidal cells, the stimulation electrode (0.3-0.5 MΩ) was inserted into layers II/III of the prelimbic cortex. The recording electrode (2-2.5 MΩ) was placed in the vicinity of dendrites and cell bodies of pyramidal neurons in layer V (Huang et al., 2004).
Before LTP induction, basal synaptic transmission was recorded in each slice and the relationship between stimulus intensity and fEPSP slope was measured. Basal fEPSPs were evoked at 0.05 Hz for at least 10 min. The supramaximal slope was determined by gradually increasing the stimulation intensity until a population spike in the fEPSP became first visible. The stimulation intensity was adjusted to elicit a basal fEPSP with a slope of approximately 50% of the supramaximal value.
LTP was induced by application of five trains of theta-burst stimulation (TBS) with an inter-theta-train interval of 20 s (Brennaman et al., 2011). Each train consisted of 8 bursts delivered at 5 Hz. Each burst consisted of four pulses delivered at 100 Hz. Duration of pulses was 0.2 ms. For calculation of the LTP level, the mean fEPSP slope was measured between 50-60 min after TBS delivery, and it was then normalized to mean baseline fEPSP slope during 0-10 min before TBS. Stimulus artifacts in representative fEPSP examples in figures were blanked to facilitate the perception of fEPSPs recorded in the mPFC. Recording and analysis of LTP in St8Sia4^−/− mice was performed in a blind manner.
The enzyme endosialidase NF (endoNF) (Stummeyer et al., 2005) and the short form of polysialic acid composed of 10 or twelve sialic acid residues (DP10 and DP12) were purified as described previously (Keys et al., 2014). Sialic acid (N-acetylneuraminic acid, DP1) and the pentamer of sialic acid sodium salt (DP5) were obtained from EY Laboratories (San Mateo, Calif., USA). DMB-labelled DP2 and DP12, and non-labelled avDP10-9OAc were synthesized in the laboratory of Rita Gerardy-Schahn (see sections Synthesis of DMB-DP2 and DMB-DP12 and Synthesis of avDP10-9OAc, respectively). […]

Take (α(2→8)Neu5Ac)12 [DP12]: the “decrease of NMDAR-EPSC amplitude” value in test [1] (endoNF-treated slices, 1 μg/ml) is approximately 25%. For the same molecule, the “inhibition as % of the mean inhibition produced by Ro 25-6981 applied alone” value in test [1] (endoNF-treated slices, same time window, estimated) is reported as approximately 90%. Further, in test [1], the “inhibition of NMDAR-EPSC amplitude” value is on record as “no significant inhibition”. The “LTP level 50-60 min after TBS” value in test [2] is on record as “full restoration of LTP levels”.
As for `C[C@@H](CN1CCC(Cc2ccccc2)CC1)[C@@H](O)c1ccc(O)cc1.O=C(O)/C=C\C(=O)O` [Ro 25-6981, (αR,βS)-α-(4-hydroxyphenyl)-β-methyl-4-(phenylmethyl)-1-piperidinepropanol maleate], the “reduction of EPSC amplitude on subsequent application after DP1” value in test [1] (endoNF-treated slices, 0.3 μM) was approximately 20%. Further, the “reduction of NMDAR-EPSC amplitude on subsequent application after DP12” value in test [1] (endoNF-treated slices, 0.3 μM Ro 25-6981 after DP12) was “marginally”. The “inhibition of NMDAR-EPSC amplitude” value in test [1] is “no significant inhibition”. Moreover, in test [2], the “LTP level 50-60 min after TBS” value was “full restoration of LTP levels”. Further, the LTP magnitude entry in test [2] (sham-treated slices, 0.3 μM) is “no effect”.

The record behind these values is patent US20210301038A1, “POLYSIALIC ACID AND DERIVATIVES THEREOF, PHARMACEUTICAL COMPOSITION AND METHOD OF PRODUCING POLYSIALIC ACID” (Medizinische Hochschule Hannover (MHH), priority 2018, published 2021).
